# Counter-ions that a name gives are not always drawn. Starred links: 1 amine or outer side, 2 acyl side, 3 side chain; linkers in the order of their positions; H or OH if unused. Positions of bridges follow the written chain, without caps; N, C: chain ends. Non-standard residues stand in square brackets, D forms with d. Residues, ends and D or L forms follow the SMILES beside them. Chains are numbered I, II in the order given. *: point of attachment. Actinocin(9to1) = Cc1c2oc3c(C)ccc(C(=O)[*:1])c3nc-2c(C(=O)[*:2])c(N)c1=O; NMeV = CN[C@H](C(=O)O)C(C)C; Cbz = O=C(OCc1ccccc1)*; Sar = CNCC(=O)O
# Key:
# [1] = test system: hippocampal neuronal cultures; assay: Pulse-chase imaging of proteome turnover in hippocampal neuronal cultures under proteasomal stress; assay type: cell-based
# Method: Regular Medium of D12 hippocampal neuronal cultures was replaced by methionine-deficient medium containing 1 mM L-Homopropargylglycine (e.g., HPG, C10186, Invitrogen) for 12 h. The medium was then exchanged to fresh methionine-deficient medium containing 1 mM AHA with or without 10 μM MG132 (e.g., M7449 SIGMA) for another 10 h. Cells were fixed with 4% PFA for 20 min, permeabilized with 0.5% Triton for 15 min. The immuno-staining procedures were the same as described above. Then 1.25 μM MARS2228-azide with Click-iT® Cell Reaction Buffer was added to cells/slices to react with HPG for 20 min. After washing with PBS, 4 μM Alexa 647-alkyne with Click-iT® Cell Reaction Buffer was added to react with AHA for 20 min. Cells were washed with PBS before imaging.
# 6 technical replicates of 8-colour images were acquired from 3 independent neuronal co-cultures (e.g., the same condition as described above for FIGS. 48d1-48d5) for statistical presentation. […] Cross-checking 8-colour staining, the percentages of astrocytes with aggregations (e.g., the number of astrocytes with aggregations divided by the total number of astrocytes) and the percentages of neurons with aggregations (e.g., the number of neurons with aggregations divided by the total number of neurons) were calculated for each image sets. […]
# [2] = test system: RNA synthesis in HeLa cells; assay: SRS imaging of EU incorporation (RNA transcription), control with RNA synthesis inhibitor; assay type: cell-based; conditions: 200 nM actinomycin D, 2 mM EU, live HeLa cells
# Description: Next, we studied RNA transcription and turnover using the alkyne-tagged uridine analogue, 5-ethynyl uridine (EU)8 in Hela cells (e.g. FIG. 12a).
# HeLa cells [3] = assay: Alkyne-D-glucose uptake and competition in live HeLa cells (SRS); assay type: cell-based
# [4] = test system: protein synthesis in HeLa cells; assay: Protein synthesis inhibition in HeLa cells incubated with deuterium-labeled all amino acids (C-D signal); assay type: cell-based; conditions: 5 μM anisomycin
# Method: FIGS. 34a-34i is a set of exemplary images based on SRS imaging of time-dependent de novo protein synthesis and drug-induced protein synthesis inhibition effect in live HeLa cells incubated in deuterium-labeled all amino acid medium. […] As a control, the amide I (1655 cm^−1) signal remains at a steady state over time (5 hrs—FIG. 34d, 12 hrs—FIG. 34e, 20 hrs—FIG. 34f). FIGS. 34g-34i illustrate ratio images between the SRS image at 2133 cm^−1 (newly synthesized proteins) and the SRS image at 1655 cm^−1 (the amide I band from total proteins), representing the relative new protein fraction with subcellular resolution at each time point (5 hrs—FIG. 34g, 12 hrs—FIG. 34h, 20 hrs—FIG. 34i). The bar represents the ratio ranging from low to high.
# The effect of protein synthesis inhibition by chemical drugs can be further tested to validate that the detected C-D signal indeed derives from nascent proteins. […] (See, e.g., FIG. 34k). […] Thus, the detected C-D SRS signal (e.g., FIGS. 34a-34c) can originate from deuterium-labeled nascent proteins, which can vanish upon adding the protein synthesis inhibitor.
# [5] = test system: DNA synthesis in HeLa cells; assay: SRS imaging of EdU incorporation during de novo DNA synthesis, control with DNA synthesis inhibitor; assay type: cell-based; conditions: 10 mM hydroxyurea, 100 μM EdU, live HeLa cells
# HeLa cells [6] = conditions: 2 mM methionine competing with 2 mM Hpg, live HeLa cells
# Method: FIG. 12f illustrates live Hela cells incubated with 2 mM Hpg alone (alkyne-on) and with 2 mM methionine (Control). […] For FIG. 12b, FIG. 12d, and FIG. 12f, alkyne-off and amide images display the same set of cells as the alkyne-on images; lipid images capture the same cells as control images.
# Sample preparation for SRS imaging of live cells and organisms. For all SRS imaging experiments of HeLa cells (e.g. FIGS. 12a-12j), cells were first Seeded on coverslips with a density of 1×10^5/mL in petri dishes with 2 mL DMEM culture medium for 20 h at 37° C. and 5% CO2. • 1) EdU experiment, DMEM culture medium was then changed to DMEM medium (FBS-free) for 24 h for cell cycle synchronization. After synchronization, medium was replaced back to DMEM culture medium and EdU (10 mM stock in PBS) was simultaneously added to a concentration of 100 μM for 15 h. • 2) EU experiment, EU (100 mM stock in PBS) was added to the DMEM culture medium directly to a concentration of 2 mM for 7 h. • 3) Hpg experiment, DMEM culture medium was then changed to methionine-deficient culture medium for 1 h, followed by supplying 2 mM Hpg (200 mM stock in PBS) in the medium for 24 h. • 4) Propargylcholine and EdU dual-color experiment, DMEM culture medium was changed to DMEM medium (FBS-free) for synchronization. […]
# mouse ear tissue = assay: SRS imaging of drug delivery into mouse ear tissue
# Description: Sample preparation for drug delivery into mouse ear tissues. […] The amide (1655 cm^−1) and lipid (2845 cm^−1) images have been applied with linear spectral unmixing to eliminate cross talk before composition.
# FIG. 17a depicts Raman spectra of a drug cream, Lamisil, containing 1% TH and mouse ear skin tissue. FIGS. 17b-17e illustrate SRS imaging of tissue layers from stratum corneum (z=4 μm) to viable epidermis (z=24 μm), sebaceous gland (z=48 μm) and subcutaneous fat (z=88 μm). To facilitate tissue penetration, DMSO solution containing 1% TH was applied onto the ears of an anesthetized live mouse for 30 min and the dissected ears are imaged afterwards. […] The composite images show protein (1655 cm^−1) and lipid (2845 cm^−1) distributions.
# FIGS. 18a and 18b show SRS imaging of the viable epidermis layer (z=20 μm) and the sebaceous gland layer (z=40 μm). […] The composite images show both protein (1655 cm^−1) and lipid (2845 cm^−1) distributions.
compound,measurement,setting,value
CC(C)C[C@@H](C=O)NC(=O)[C@H](CC(C)C)NC(=O)[C@H](CC(C)C)NC(=O)OCc1ccccc1 [MG132] (Cbz-Leu-Leu-Leu-aldehyde),cell type with proteome inclusions,"[1]; 10 μM MG132, neuronal co-cultures, n=6",proteome inclusions appeared mostly in astrocytes instead of neurons
same,proteome turnover,"[1]; 10 μM MG132 in the chase period, 10 h",retarded the proteome turnover
"Cc1c2oc3c(C)ccc(C(=O)N[C@@H]4C(=O)N[C@H](C(C)C)C(=O)N5CCC[C@H]5C(=O)N(C)CC(=O)N(C)[C@@H](C(C)C)C(=O)O[C@@H]4C)c3nc-2c(C(=O)N[C@@H]2C(=O)N[C@H](C(C)C)C(=O)N3CCC[C@H]3C(=O)N(C)CC(=O)N(C)[C@@H](C(C)C)C(=O)O[C@@H]2C)c(N)c1=O [actinomycin D] (I: T[dV]P[Sar][NMeV] / II: T[dV]P[Sar][NMeV]; ester I:1-I:C, II:1-II:C; linker I:N-II:N via Actinocin(9to1))",EU alkyne-on signal (newly synthesized RNA),[2],nearly disappears
C#CCOC1C(O)C(O)OC(CO)C1O [alkyne-D-glucose],glucose signal inside cells (uptake),"HeLa cells [3]; 32 mM, live HeLa cells, 10 min to 4 h",increasing over time
same,alkyne-D-glucose signal under competition with regular D-glucose,"HeLa cells [3]; D-glucose 10 mM, 50 mM and 100 mM",decreases
same,alkyne-D-glucose signal under competition with L-glucose,HeLa cells [3]; L-glucose,retained
COc1ccc(C[C@H]2NC[C@H](O)[C@H]2OC(C)=O)cc1 [anisomycin],C-D signal in the spontaneous Raman spectrum (2133 cm−1),"[4]; HeLa cells, deuterium-labeled all amino acids",absence of the C-D signal
same,C-D SRS imaging signal of newly synthesized proteins,[4]; compared with no inhibitor,drastically weaker signal
same,total proteome signal (2940 cm−1 image),[4]; versus non-drug treated counterpart,remains at a similar level
NC(=O)NO [hydroxyurea],EdU signal (newly synthesized DNA),[5],No EdU signal shows up
"CSCC[C@H](N)C(=O)O [methionine, L-methionine]",Hpg signal (newly synthesized proteins),HeLa cells [6],causes the signal to disappear
CN(C/C=C/C#CC(C)(C)C)Cc1cccc2ccccc12 [terbinafine hydrochloride],tissue penetration pathway,"mouse ear tissue; 1% TH in DMSO, mouse ear, 30 min",penetrates into tissues through the lipid phase
same,depth of drug delivery imaged inside mouse ear tissue,"mouse ear tissue; internal alkyne at 2230 cm−1, 1% TH applied 30 min",about 100 μm

# Source: patent US12038377B2, “Devices, compositions and methods for imaging with Raman scattering” (THE TRUSTEES OF COLUMBIA UNIVERSITY IN THE CITY OF NEW YORK, priority 2013, dated 2024)
